# Test results: US9279107B2, “Simplified basic media for human pluripotent cell culture” (WISCONSIN ALUMNI RESEARCH FOUNDATION, priority 2010, dated 2016)
# Columns and labels:
# Type in all cases: cell-based, human
# [1] = test system: H1 cells; test: NANOG mRNA expression; conditions: added to DF5S; NODAL 100 ng/ml or TGF-β 2 ng/ml; compared to DF5S
# Source text: DF5S was used to expand H1 cells. Cells grown in DF5S were more prone to differentiate than cells grown in TeSR™. However, H1 cells could be grown for several weeks (more than 15 passages), during which the cells maintained human ES cell morphology and high levels of OCT4 expression (FIG. 1E, FIG. 1F). […] DF5S+NODAL also supported pluripotency of the two tested human iPS cell lines, as determined by high expression of the pluripotency marker OCT4. All cells (hES cells and iPS cells) grown in DF5S with either NODAL or TGF-β maintained a normal karyotype after long-term passage.
# [2] = test system: patient cell lines OAT, PRPF8-2, GRC M1-29; test: Reprogramming of adult donor cell lines with episomal vectors; conditions: TGF-β added to the reprogramming media
# [3] = test system: iPS cells; test: Long-term pluripotency of lentiviral iPS cell lines; conditions: added to DF5SFe; TGF-β 2 ng/ml or NODAL 100 ng/ml
# Source text: Human ES cell lines, such as H1 and H9 have a culture history that includes exposure to various complex culture components, such as FBS, feeder cells, and knockout serum replacer. Exposure to these components could conceivably create dependency on these components and, consequently, alter cellular response to simplified media. Culture history might play a lesser role for iPS cells, derived from reprogrammed somatic cells, as derivation conditions are less complex. Therefore, different factors were tested with two original lentiviral iPS cell lines (Yu, et al., Science 318:1917 (2007)) grown in DF5SFe. Cells were transferred from MEF plates directly into DF5SFe medium for one passage and then passaged into various growth factor conditions. […] Pluripotency surface markers SSEA4, SSEA3, Tra-1-60, and Tra-1-81 were also expressed. Cells with normal karyotypes were continuously maintained for more than 20 passages. The cells were capable of forming teratomas 5-7 weeks after injection into severe combined immunodeficient (SCID) mice.
# [4] = test system: H1 cells; test: Oct4 expression by flow cytometry as indicator of pluripotency
# Procedure: As described in Example 3, human pluripotent cells, such as H1, H9, and iPS cells, could be grown and passaged over 15 times in DF5S but were prone to differentiate, such that extra care is needed to sustain pluripotency in DF5S. Because pluripotency could be maintained more easily in TeSR™, growth factors present in TeSR™ were added individually to DF5SFe used to grow H1 cells that were previously cultured in DF5S without differentiating to identify factors supporting long-term pluripotency. Cells were passaged approximately one day after reaching confluency, facilitating cell differentiation, and Oct4 expression, assessed by flow cytometry, was used as indicator of pluripotency.
# Human pluripotent cells grown in DF5SFe elongated and lined up along each other, resembling a “spindle” shape just prior to differentiation. […] Thus, recombinant proteins of the TGF-β pathway were tested for their ability to support long-term pluripotency.
# [5] = test system: foreskin cells; test: Reprogramming of foreskin fibroblasts to iPS cells; conditions: foreskin fibroblasts
# Procedure: Available reprogramming protocols include incubation of the cells in FBS in the first several days after viral transduction or electroporation, prior to switching the cells to UM100 (U.S. Pat. No. 7,439,064, incorporated herein as if set forth in its entirety) or CM. The simplified media described in previous Examples were tested for their ability to support reprogramming.
# To determine if DF5S-based media can be used for viral-free iPS cell derivation, foreskin cells were reprogrammed using a viral-free episomal vector, as described in Yu et al., Science 324:797 (2009), incorporated herein by reference as if set forth in its entirety, at hypoxic conditions (O5C10).
# Plasmid combinations #6 and #19 were used for the reprogramming. In order to enhance the plasmid entry into the nucleus, ENBA mRNA was electroporated along with plasmid DNA. Around one million cells were transferred onto two 6-well plates in DF5SFeC for 5 days. Medium was then switched to DF5SFe for another 18-25 days. Cells of some of the wells were passaged for a second time using a 1:6 ratio at different time points.
substance,measurement,setting,value
transforming growth factor beta [TGF-β],NANOG mRNA level,[1],significantly higher levels of NANOG mRNA
same,number of iPS clones,[2],not increased significantly
same,total number of colonies,[2],increased significantly
same,long-term pluripotency,[3],supported long-term pluripotency of iPS cells
same,Oct4 expression,[4]; DF5SFe supplemented with TGF-β at TeSR concentration (0.6 ng/ml),low levels of Oct4 expression
same,Oct4 expression,[4]; DF5SFe supplemented with TGF-β at higher concentration (1 ng/ml),maintain high Oct4 expression
same,number of colonies during reprogramming,[5],increased numbers of colonies
same,number of true iPS cell colonies,[5]; TGF-β addition,remained low
